According to PMC9870012 (Journal of Enzyme Inhibition and Medicinal Chemistry, 2023):

Columns and labels:
human meprin α = biological target: T1, human meprin α (Homo sapiens, UniProt Q16819); format: biochemical; conditions: for SF: selectivity factor (Ki(app) meprin β/Ki(app) meprin α): meprin α over meprin β; for Ki: Ki(app) Meprin α, geometric mean of three independent experiments with standard deviation factor; for reduction of the meprin α selectivity by factor: compared to 16a
T1 sequence (Q16819 66-746): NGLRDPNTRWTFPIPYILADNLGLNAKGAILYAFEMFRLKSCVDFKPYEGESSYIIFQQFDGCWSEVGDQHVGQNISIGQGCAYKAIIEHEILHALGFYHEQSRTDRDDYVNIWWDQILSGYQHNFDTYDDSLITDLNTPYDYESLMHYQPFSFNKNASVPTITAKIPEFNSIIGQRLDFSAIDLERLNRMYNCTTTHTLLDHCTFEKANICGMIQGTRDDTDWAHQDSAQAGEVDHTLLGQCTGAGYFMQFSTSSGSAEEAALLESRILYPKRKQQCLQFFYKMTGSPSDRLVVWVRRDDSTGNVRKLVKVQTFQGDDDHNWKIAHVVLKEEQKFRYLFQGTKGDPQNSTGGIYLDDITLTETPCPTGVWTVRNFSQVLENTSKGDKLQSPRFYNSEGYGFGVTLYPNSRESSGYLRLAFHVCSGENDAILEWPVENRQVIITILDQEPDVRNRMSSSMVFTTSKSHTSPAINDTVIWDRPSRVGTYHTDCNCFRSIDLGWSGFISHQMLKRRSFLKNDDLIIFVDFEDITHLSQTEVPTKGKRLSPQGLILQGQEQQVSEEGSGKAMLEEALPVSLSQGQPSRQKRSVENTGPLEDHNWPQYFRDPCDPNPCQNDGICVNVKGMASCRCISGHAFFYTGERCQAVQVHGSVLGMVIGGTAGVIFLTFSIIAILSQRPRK

human meprin β = biological target: T2, human meprin β (Homo sapiens, UniProt Q16820); format: biochemical; conditions: for Ki: Ki(app) Meprin β, geometric mean of three independent experiments with standard deviation factor; for increased inhibition of meprin β by factor: in comparison to the N-phenyl pyrazole 21b
T2 sequence (Q16820 62-701): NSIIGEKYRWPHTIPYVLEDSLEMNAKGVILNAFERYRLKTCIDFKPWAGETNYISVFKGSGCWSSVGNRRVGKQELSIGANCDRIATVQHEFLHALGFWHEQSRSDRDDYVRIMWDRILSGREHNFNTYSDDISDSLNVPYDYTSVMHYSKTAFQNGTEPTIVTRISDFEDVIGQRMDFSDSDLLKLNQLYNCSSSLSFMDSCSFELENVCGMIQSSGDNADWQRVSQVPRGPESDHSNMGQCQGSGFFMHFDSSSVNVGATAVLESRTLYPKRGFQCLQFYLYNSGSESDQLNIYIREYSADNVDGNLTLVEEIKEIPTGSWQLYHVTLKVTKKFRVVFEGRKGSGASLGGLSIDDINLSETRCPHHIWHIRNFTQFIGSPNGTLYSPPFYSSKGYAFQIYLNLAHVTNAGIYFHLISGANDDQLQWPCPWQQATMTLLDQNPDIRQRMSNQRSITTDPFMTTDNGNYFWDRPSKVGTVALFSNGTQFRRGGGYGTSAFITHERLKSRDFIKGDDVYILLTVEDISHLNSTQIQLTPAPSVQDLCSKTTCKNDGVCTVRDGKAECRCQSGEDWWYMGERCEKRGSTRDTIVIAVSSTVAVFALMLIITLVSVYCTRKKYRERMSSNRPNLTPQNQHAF

Row | SF: selectivity factor (Ki(app) meprin β/Ki(app) meprin α) (human meprin α) | Ki (human meprin α) | Ki (human meprin β) | increased inhibition of meprin β by factor (human meprin β) | reduction of the meprin α selectivity by factor (human meprin α) | SMILES
1 | 87 | 5 nM | 437 nM | – | – | Cn1nc(-c2ccccc2)c(CC(=O)NO)c1-c1ccccc1 [21a, 2-(1-Methyl-3,5-diphenyl-pyrazol-4-yl)ethanehydroxamic acid]
2 | 0.7 | 21 nM | 14.5 nM | – | – | O=C(Cc1c(-c2cccc(C(=O)O)c2)[nH]nc1[C@H]1CC[C@@H](C(=O)O)CC1)NO [16m, 3-[3-(Cis-4-Carboxycyclohexyl)-4-[2-(hydroxyamino)-2-oxo-ethyl]-1H-pyrazol-5-yl]benzoic acid]
3 | 2 | – | – | – | – | O=C(Cc1c(-c2ccc(C(=O)O)cc2)n[nH]c1-c1ccc(C(=O)O)cc1)NO [16c, 4-[3-(4-Carboxyphenyl)-4-[2-(hydroxyamino)-2-oxo-ethyl]-1H-pyrazol-5-yl]benzoic acid]
4 | 46 | 4 nM | 182 nM | 3 | – | O=C(Cc1c(-c2ccccc2)nn(-c2ccc(C(=O)O)cc2)c1-c1ccccc1)NO [21d, 4-[4-[2-(Hydroxyamino)-2-oxo-ethyl]-3,5-diphenyl-pyrazol-1-yl]benzoic acid]
5 | 53 | 4 nM | 212 nM | 3 | – | O=C(Cc1c(-c2ccccc2)nn(-c2cccc(C(=O)O)c2)c1-c1ccccc1)NO [21c, 3-[4-[2-(Hydroxyamino)-2-oxo-ethyl]-3,5-diphenyl-pyrazol-1-yl]benzoic acid]
6 | 1 | 9.6 nM | 11.2 nM | – | – | O=C(Cc1c(-c2ccc(C(=O)O)cc2)n[nH]c1-c1ccc(Cl)c(O)c1F)NO [16h, 4-[5-(4-Chloro-2-fluoro-3-hydroxy-phenyl)-4-[2-(hydroxyamino)-2-oxo-ethyl]-1H-pyrazol-3-yl]benzoic acid]
7 | 291 | 1 nM | 291 nM | – | – | O=C(Cc1c(-c2ccccc2)nn(Cc2ccccc2)c1-c1ccccc1)NO [21e, 2-(1-Benzyl-3,5-diphenyl-pyrazol-4-yl)ethanehydroxamic acid]
8 | 2 | 20.3 nM | 32.5 nM | – | – | O=C(Cc1c(-c2ccc(C(=O)O)cc2)n[nH]c1-c1cccc(C(=O)O)c1)NO [16g, 3-[3-(4-Carboxyphenyl)-4-[2-(hydroxyamino)-2-oxo-ethyl]-1H-pyrazol-5-yl]benzoic acid]
9 | 9 | 10.5 nM | – | – | 10–20 | O=C(Cc1c(-c2ccc3c(c2)OCO3)n[nH]c1-c1ccc(C(=O)O)cc1)NO [16f, 4-[3-(1,3-Benzodioxol-5-yl)-4-[2-(hydroxyamino)-2-oxo-ethyl]-1H-pyrazol-5-yl)benzoic acid]
10 | 15 | 3.1 nM | – | – | 10–20 | O=C(Cc1c(-c2ccc3c(c2)OCO3)n[nH]c1-c1cccc(C(=O)O)c1)NO [16e, 3-[3-(1,3-Benzodioxol-5-yl)-4-[2-(hydroxyamino)-2-oxo-ethyl]-1H-pyrazol-5-yl)benzoic acid]
11 | 1 | – | – | – | – | O=C(Cc1c(-c2cccc(C(=O)O)c2)[nH]nc1[C@H]1CC[C@H](C(=O)O)CC1)NO [16l, 3-[3-(Trans-4-Carboxycyclohexyl)-4-[2-(hydroxyamino)-2-oxo-ethyl]-1H-pyrazol-5-yl]benzoic acid]
12 | 3 | 4.2 nM | – | – | – | O=C(Cc1c(-c2ccc(Cl)c(O)c2F)n[nH]c1-c1ccc(Cl)c(O)c1F)NO [16d, 2-[3,5-Bis(4-chloro-2-fluoro-3-hydroxyphenyl)-1H-pyrazol-4-yl]ethanehydroxamic acid]
13 | 1 | 5.1 nM | – | – | – | O=C(Cc1c(-c2cccc(C(=O)O)c2)n[nH]c1-c1ccc(Cl)c(O)c1F)NO [16i, 3-[5-(4-Chloro-2-fluoro-3-hydroxy-phenyl)-4-[2-(hydroxyamino)-2-oxo-ethyl]-1H-pyrazol-3-yl]benzoic acid]

Second part, the compound before the results:

Row | SMILES | SF: selectivity factor (Ki(app) meprin β/Ki(app) meprin α) (human meprin α) | Ki (human meprin α) | Ki (human meprin β) | increased inhibition of meprin β by factor (human meprin β) | reduction of the meprin α selectivity by factor (human meprin α)
14 | O=C(Cc1c(-c2cc(O)no2)n[nH]c1-c1ccccc1)NO [14n, 2-[3-(3-Hydroxyisoxazol-5-yl)-5-phenyl-1H-pyrazol-4-yl]ethanehydroxamic acid] | 1 | – | – | – | –
15 | N#Cc1cccc(-c2n[nH]c(-c3ccccc3)c2CC(=O)NO)c1 [14h, 2-[3-(3-Cyanophenyl)-5-phenyl-1H-pyrazol-4-yl]ethanehydroxamic acid] | 67 | 4.8 nM | – | – | –
16 | O=C(Cc1c([C@H]2CCCC[C@H]2C(=O)O)n[nH]c1-c1ccccc1)NO (relative stereo) [14q, Cis-2-[4-[2-(hydroxyamino)-2-oxo-ethyl]-5-phenyl-1H-pyrazol-3-yl]cyclohexanecarboxylic acid] | 127 | 0.3 nM | 32.6 nM | – | –
17 | O=C(Cc1c(C2CCCC2)n[nH]c1-c1ccccc1)NO [14c, 2-(3-Cyclopentyl-5-phenyl-1H-pyrazol-4-yl)ethanehydroxamic acid] | 53 | 5.6 nM | – | – | –
18 | O=C(Cc1c(-c2ccccc2)[nH]nc1[C@H]1CC[C@@H](C(=O)O)CC1)NO [14t, Cis-4-[4-[2-(hydroxyamino)-2-oxo-ethyl]-5-phenyl-1H-pyrazol-3-yl]cyclohexanecarboxylic acid] | 4 | – | – | – | –
19 | N#Cc1ccc(-c2n[nH]c(-c3ccccc3)c2CC(=O)NO)cc1 [14i, 2-[3-(4-Cyanophenyl)-5-phenyl-1H-pyrazol-4-yl]ethanehydroxamic acid] | 71 | 13.6 nM | – | – | –
20 | O=C(Cc1c(Cc2ccccc2)n[nH]c1-c1ccccc1)NO [14b, 2-(3-Benzyl-5-phenyl-1H-pyrazol-4-yl)ethanehydroxamic acid] | 25 | – | – | – | –
21 | O=C(Cc1c(-c2ccc(Cl)c(O)c2F)n[nH]c1-c1ccccc1)NO [14l, 2-[3-(4-Chloro-2-fluoro-3-hydroxyphenyl)-5-phenyl-1H-pyrazol-4-yl]ethanehydroxamic acid] | 31 | 2.2 nM | – | – | –
22 | O=C(Cc1c(C2CCCC(C(=O)O)C2)n[nH]c1-c1ccccc1)NO (centres unmarked) [14r, 3-[4-[2-(Hydroxyamino)-2-oxo-ethyl]-5-phenyl-1H-pyrazol-3-yl]cyclohexanecarboxylic acid] | 39 | 1.4 nM | – | – | –
23 | O=C(Cc1c(-c2ccc(C(=O)O)cc2)n[nH]c1-c1ccccc1)NO [14k, 4-[4-[2-(Hydroxyamino)-2-oxo-ethyl]-5-phenyl-1H-pyrazol-3-yl]benzoic acid] | 7 | 17.2 nM | – | – | –
24 | Cc1n[nH]c(-c2ccccc2)c1CC(=O)NO [14a, 2-(3-Methyl-5-phenyl-1H-pyrazol-4-yl)ethanehydroxamic acid] | 7 | – | – | – | –
25 | O=C(Cc1c(-c2ccccc2)[nH]nc1[C@H]1CC[C@H](C(=O)O)CC1)NO [14s, Trans-4-[4-[2-(hydroxyamino)-2-oxo-ethyl]-5-phenyl-1H-pyrazol-3-yl]cyclohexanecarboxylic acid] | 8 | 11.6 nM | – | – | –
26 | O=C(Cc1c(-c2cccc(C(=O)O)c2)n[nH]c1-c1ccccc1)NO [14j, 3-[4-[2-(Hydroxyamino)-2-oxo-ethyl]-5-phenyl-1H-pyrazol-3-yl]benzoic acid] | 6 | 7.5 nM | – | – | –
27 | COc1ccc(-c2n[nH]c(-c3ccccc3)c2CC(=O)NO)cc1 [14e, 2-[3-(4-Methoxyphenyl)-5-phenyl-1H-pyrazol-4-yl]ethanehydroxamic acid] | 48 | 1.3 nM | – | – | –
28 | O=C(Cc1c(-c2c[nH]nc2C(F)(F)F)n[nH]c1-c1ccccc1)NO [14o, 2-[5-Phenyl-3-[3-(trifluoromethyl)-1H-pyrazol-4-yl]-1H-pyrazol-4-yl]ethanehydroxamic acid] | 55 | 1.6 nM | – | – | –
